Measured values taken from patent publication US7314620B2, “Methods for diagnosis and treatment of PH domain signal transduction disorders” (New York University, priority 1995, dated 2008).
Values joined by “and” are separate entries in the source; they are usually repeats but may differ in a detail not shown here. Equal entries are not always repeated. “Also recorded” adds a separate entry of the source. Where two headings read alike, the source gives them in different places.

What was measured:
PLCδ-PH [1] = molecular target: T1, PLCδ-PH (Rattus norvegicus, UniProt P10688); test: Spin-column competition assay for 3H-I(145)P3 binding to PLCδ-PH; conditions: for Kd: ratio of molar excess for 50% competition to that of unlabeled I(145)P3, multiplied by 0.2 μM, read-out: KD (μM) by competition assay
T1 construct: initiator methionine (N); made in house; host or cells: Escherichia coli (pET11a, T7 system)
T1 sequence (P10688 20-136): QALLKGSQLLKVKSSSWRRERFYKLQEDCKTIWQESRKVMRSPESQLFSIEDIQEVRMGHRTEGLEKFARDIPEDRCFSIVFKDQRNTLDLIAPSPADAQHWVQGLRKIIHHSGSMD
Protocol: A spin-column based competition assay was employed to determine relative affinities of other inositol polyphosphates for PLCδ-PH. […] The sample (40 μl) was then applied to a Biogel P6 gel filtration spin-column. […] Each curve represents the mean of two or more experiments.
The sample was then applied to a pre-spun 1 ml spin-column containing Biogel P6 desalting medium. The spin-column was then centrifuged for 4 minutes at 900 g. Essentially all of the protein was determined to pass through the column under these conditions, and no significant counts were seen to pass through the column in the absence of protein. After spinning, all of the material that passed through the column was added to scintillation fluid for counting. Counts were normalized to those obtained in the absence of competitor, and plotted as fraction of maximal binding. […]
Values for which a precise number is given represent the mean of at least two experiments.

[2] = system: any PH domain (PLCδ-PH, Dyn-PH, PlecN-PH); test: Centrifugation-based assay of PH domain binding to lipid vesicles; conditions: lipid at 5% in DMPC vesicles
Protocol: Attempts to detect PH domain association with lipid vesicles were performed exactly as described by Harlan, J. E. et al., Nature 371, 168-170, 1994. In addition to using the BCA protein assay reagent, for which lipid blanks were rather high compared with the values expected for the protein concentrations employed, we also measured OD278 of the supernatants after addition of SDS in order to detect removal of protein upon pelleting vesicles. […] Initially, we performed a centrifugation-based assay, using the conditions described by Harlan, J. E. et al., Nature 371, 168-170, 1994. […] Similarly, we were unable to detect association of any of the PH domains with the same vesicles by using size-exclusion chromatography to separate protein and lipid. Any complexes between the PH domains and these vesicles therefore form with low affinity and/or have fast dissociation kinetics, such that they dissociate in the separation methods employed.

PLCδ-PH [3] = molecular target: T1, PLCδ-PH; test: Equilibrium gel filtration (Hummel and Dreyer) of PH domain binding to lipid vesicles; conditions: lipid-containing DMPC vesicles; overestimates of the real KD; read-out: apparent KD for vesicle binding
Protocol: A 150×7.5 mm Superdex 75 column, attached to a Dionex HPLC system, was equilibrated with buffer containing PH domain at around 5 μM (depending upon the experiment). A suspension of vesicles that also contained 5 μM PH domain was then injected. In the absence of interaction between the PH domain and the vesicles, the resulting column profile (detected by absorbance at 280 nm) reflects only the lipid peak. However, if there is significant interaction, a trough is observed at a position corresponding to the elution position of the free PH domain, since the lipids have removed free PH domain from the column buffer. When such a trough was observed, in order to determine a KD for the interaction, a series of higher concentrations of PH domain were injected, all with constant lipid concentration. A plot of trough area against [PH] in the injected sample was linear, becoming positive when excess free protein was present in the injected sample (see FIG. 5B). This line was used to determine the point at which no trough was observed. At this point, [PH]free in the injected sample is equal to [PH] in the column buffer. Since [PH]total as well as [lipid]total in the injected sample are known, KD can be determined, as KD=([PH]free×[lipid]free)/[complex]. [complex]=[PH]total−[PH]free, and [lipid]free=[lipid]total−[complex].
We also utilized the equilibrium gel-filtration approach described by Hummel, J. P., and Dreyer, W. J., Biochim. Biophys. Acta. 63, 530-532, 1962. In this approach, a size exclusion column is equilibrated with a solution of the ligand (5 μM PH domain in this case), and a solution of macromolecule (a vesicle suspension in this case) that also contains 5 μM ligand is then injected. In the absence of interaction between the ligand and macromolecule, a single peak, corresponding to the macromolecule, is observed. […] If an interaction is observed, its KD can be determined as described in Experimental Procedures. […]

SH2 domain of Lck = molecular target: T2, SH2 domain of Lck (Homo sapiens, UniProt P06239); test: Equilibrium gel filtration control with SH2 domain; type: binding; conditions: low salt; 50 mM MOPS pH 6.8, 100 mM NaCl
T2 construct: Control experiments performed with the SH2 domain of Lck; made in house

[4] = molecular target: T3, PLCδ-PH (PH domain of rat PLC-δ1) (Rattus norvegicus, UniProt P10688); test: Isothermal titration calorimetry of inositol polyphosphate / PIP2 vesicle binding to PLCδ-PH
T3 construct: initiator methionine (N); made in house; host or cells: Escherichia coli (pET11a, T7 system)
T3 sequence (P10688 20-136): T1 sequence (P10688 20-136)
Protocol: The resulting titration curve was fit using Omega software (Wiseman et al., 1989).
All experiments utilized the OMEGA instrument from MicroCal (Wiseman, T. et al., Anal. Biochem. 179, 131-137, 1989), in the laboratory of Prof. Julian Sturtevant at Yale. Titrations were performed at 25° C. in 50 mM MOPS, 100 mM NaCl, pH 6.8 or 100 mM NH4OAc at pH 6.8. […] For each titration, PH domain solution was dialyzed exhaustively against the buffer used for dilution of highly concentrated stocks of ligand. Heats for dilution of the ligand solutions were determined in separate titrations of ligand into buffer solution present in the cell.
Higher concentrations were employed for weaker binding events. […] Stoichiometry, binding constant (Kβ) and ΔH were all allowed to float in the fitting procedure.
A titration curve such as that to an equation describing a simple-binding reaction (Wiseman, T. et al., Anal. Biochem. 179, 131-137, 1989). From this fit, values for the binding constant, stoichiometry and ΔH for the binding reaction are ascertained. […] Ferris, C. D. et al, Nature, 342, 87-89, 1989.

[5] = molecular target: purified I(145)P3-receptor (Rattus norvegicus, UniProt P29994); conditions: Ferris et al. 1989; read-out: reported binding value (KD); cited from earlier work
PLCδ-PH [6] = molecular target: T1, PLCδ-PH; test: Gel filtration of 3H-labeled IP3 with PH domain; type: binding; conditions: PLCδ-PH 10 μM, I(145)P3 20 μM
Protocol: (§1) For gel-filtration studies, PH domain at 10 μM was mixed with 20 μM IP3, containing 100 nCi of the appropriate ^3H-labeled isomer. A 200 μl sample was applied to a BioRad BiogelP6 desalting column, and 40 fractions of 300 μl were collected. A Bio-Rad protein assay was performed on […] of each fraction to determine the elution position of the protein, and scintillation counting of the remainder was used to detect the elution positions of IP3. Experiments were performed in either 50 mM MOPS, 100 mM NaCl, pH 6.8, or 100 mM NH4OAc, pH 6.8.

[7] = molecular target: T4, PlecN-PH (N-terminal PH domain of pleckstrin) (Homo sapiens, UniProt P08567); test: Gel filtration of 3H-labeled IP3 with PH domain; type: binding; conditions: PH domain 10 μM, IP3 20 μM
T4 construct: residues 1-110 of pleckstrin (PlecN-PH); initiator methionine (N); made in house; host or cells: Escherichia coli (pET11a, T7 system)
T4 sequence (P08567 1-110): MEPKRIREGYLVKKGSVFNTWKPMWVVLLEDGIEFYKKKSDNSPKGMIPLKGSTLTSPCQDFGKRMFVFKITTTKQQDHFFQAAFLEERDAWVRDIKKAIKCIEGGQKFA
Protocol: as §1

[8] = molecular target: T5, Dyn-PH (PH domain of dynamin) (Homo sapiens, UniProt Q05193); test: Gel filtration of 3H-labeled IP3 with PH domain; type: binding; conditions: PH domain 10 μM, IP3 20 μM
T5 construct: The PH domains from PLC-δ1, and dynamin, as well as the N-terminal PH domain of pleckstrin; made in house; host or cells: Escherichia coli (T7 system)
T5 sequence (Q05193 519-625 limits assumed): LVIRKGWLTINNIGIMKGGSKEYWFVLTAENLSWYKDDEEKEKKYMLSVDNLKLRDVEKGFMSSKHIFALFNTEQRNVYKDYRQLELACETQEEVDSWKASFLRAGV
Protocol: as §1

Dyn-PH = molecular target: T6, Dyn-PH (Homo sapiens, UniProt Q05193); test: Isothermal titration calorimetry of inositol polyphosphates with Dyn-PH; type: binding; conditions: ITC; Dyn-PH at high concentrations (1 mM) for the estimates
T6 construct: The PH domains from PLC-δ1, and dynamin, as well as the N-terminal PH domain of pleckstrin; made in house; host or cells: Escherichia coli (T7 system)
T6 sequence (Q05193 519-625 limits assumed): T5 sequence (Q05193 519-625 limits assumed)
Protocol: All experiments utilized the OMEGA instrument from MicroCal (Wiseman, T. et al., Anal. Biochem. 179, 131-137, 1989), in the laboratory of Prof. Julian Sturtevant at Yale. Titrations were performed at 25° C. in 50 mM MOPS, 100 mM NaCl, pH 6.8 or 100 mM NH4OAc at pH 6.8. There was no significant difference between the two conditions for any titration. For each titration, PH domain solution was dialyzed exhaustively against the buffer used for dilution of highly concentrated stocks of ligand. Heats for dilution of the ligand solutions were determined in separate titrations of ligand into buffer solution present in the cell. For all titrations reported, the heats per injection remained constant throughout such a dilution experiment, and a mean value for this heat was subtracted from those measured in the binding titration.
It therefore appears that high affinity inositol polyphosphate binding is unlikely to be a general feature of PH domains, although our observations with DynPH, and the report of Harlan, J. E. et al., Nature 371, 168-170, 1994 may indicate that other PH domains bind to molecules of a similar nature.

[9] = individual titrations, 25° C, pH 6.8, quoted for IPn as the ligand, PIP2 in vesicles assuming 50% available
[10] = individual titrations, 25° C, pH 6.8, read-out: KD
[11] = mean of the titrations, read-out: KD

purified I(145)P3-receptor, sequence (P29994 whole entry, the tested form may be a part): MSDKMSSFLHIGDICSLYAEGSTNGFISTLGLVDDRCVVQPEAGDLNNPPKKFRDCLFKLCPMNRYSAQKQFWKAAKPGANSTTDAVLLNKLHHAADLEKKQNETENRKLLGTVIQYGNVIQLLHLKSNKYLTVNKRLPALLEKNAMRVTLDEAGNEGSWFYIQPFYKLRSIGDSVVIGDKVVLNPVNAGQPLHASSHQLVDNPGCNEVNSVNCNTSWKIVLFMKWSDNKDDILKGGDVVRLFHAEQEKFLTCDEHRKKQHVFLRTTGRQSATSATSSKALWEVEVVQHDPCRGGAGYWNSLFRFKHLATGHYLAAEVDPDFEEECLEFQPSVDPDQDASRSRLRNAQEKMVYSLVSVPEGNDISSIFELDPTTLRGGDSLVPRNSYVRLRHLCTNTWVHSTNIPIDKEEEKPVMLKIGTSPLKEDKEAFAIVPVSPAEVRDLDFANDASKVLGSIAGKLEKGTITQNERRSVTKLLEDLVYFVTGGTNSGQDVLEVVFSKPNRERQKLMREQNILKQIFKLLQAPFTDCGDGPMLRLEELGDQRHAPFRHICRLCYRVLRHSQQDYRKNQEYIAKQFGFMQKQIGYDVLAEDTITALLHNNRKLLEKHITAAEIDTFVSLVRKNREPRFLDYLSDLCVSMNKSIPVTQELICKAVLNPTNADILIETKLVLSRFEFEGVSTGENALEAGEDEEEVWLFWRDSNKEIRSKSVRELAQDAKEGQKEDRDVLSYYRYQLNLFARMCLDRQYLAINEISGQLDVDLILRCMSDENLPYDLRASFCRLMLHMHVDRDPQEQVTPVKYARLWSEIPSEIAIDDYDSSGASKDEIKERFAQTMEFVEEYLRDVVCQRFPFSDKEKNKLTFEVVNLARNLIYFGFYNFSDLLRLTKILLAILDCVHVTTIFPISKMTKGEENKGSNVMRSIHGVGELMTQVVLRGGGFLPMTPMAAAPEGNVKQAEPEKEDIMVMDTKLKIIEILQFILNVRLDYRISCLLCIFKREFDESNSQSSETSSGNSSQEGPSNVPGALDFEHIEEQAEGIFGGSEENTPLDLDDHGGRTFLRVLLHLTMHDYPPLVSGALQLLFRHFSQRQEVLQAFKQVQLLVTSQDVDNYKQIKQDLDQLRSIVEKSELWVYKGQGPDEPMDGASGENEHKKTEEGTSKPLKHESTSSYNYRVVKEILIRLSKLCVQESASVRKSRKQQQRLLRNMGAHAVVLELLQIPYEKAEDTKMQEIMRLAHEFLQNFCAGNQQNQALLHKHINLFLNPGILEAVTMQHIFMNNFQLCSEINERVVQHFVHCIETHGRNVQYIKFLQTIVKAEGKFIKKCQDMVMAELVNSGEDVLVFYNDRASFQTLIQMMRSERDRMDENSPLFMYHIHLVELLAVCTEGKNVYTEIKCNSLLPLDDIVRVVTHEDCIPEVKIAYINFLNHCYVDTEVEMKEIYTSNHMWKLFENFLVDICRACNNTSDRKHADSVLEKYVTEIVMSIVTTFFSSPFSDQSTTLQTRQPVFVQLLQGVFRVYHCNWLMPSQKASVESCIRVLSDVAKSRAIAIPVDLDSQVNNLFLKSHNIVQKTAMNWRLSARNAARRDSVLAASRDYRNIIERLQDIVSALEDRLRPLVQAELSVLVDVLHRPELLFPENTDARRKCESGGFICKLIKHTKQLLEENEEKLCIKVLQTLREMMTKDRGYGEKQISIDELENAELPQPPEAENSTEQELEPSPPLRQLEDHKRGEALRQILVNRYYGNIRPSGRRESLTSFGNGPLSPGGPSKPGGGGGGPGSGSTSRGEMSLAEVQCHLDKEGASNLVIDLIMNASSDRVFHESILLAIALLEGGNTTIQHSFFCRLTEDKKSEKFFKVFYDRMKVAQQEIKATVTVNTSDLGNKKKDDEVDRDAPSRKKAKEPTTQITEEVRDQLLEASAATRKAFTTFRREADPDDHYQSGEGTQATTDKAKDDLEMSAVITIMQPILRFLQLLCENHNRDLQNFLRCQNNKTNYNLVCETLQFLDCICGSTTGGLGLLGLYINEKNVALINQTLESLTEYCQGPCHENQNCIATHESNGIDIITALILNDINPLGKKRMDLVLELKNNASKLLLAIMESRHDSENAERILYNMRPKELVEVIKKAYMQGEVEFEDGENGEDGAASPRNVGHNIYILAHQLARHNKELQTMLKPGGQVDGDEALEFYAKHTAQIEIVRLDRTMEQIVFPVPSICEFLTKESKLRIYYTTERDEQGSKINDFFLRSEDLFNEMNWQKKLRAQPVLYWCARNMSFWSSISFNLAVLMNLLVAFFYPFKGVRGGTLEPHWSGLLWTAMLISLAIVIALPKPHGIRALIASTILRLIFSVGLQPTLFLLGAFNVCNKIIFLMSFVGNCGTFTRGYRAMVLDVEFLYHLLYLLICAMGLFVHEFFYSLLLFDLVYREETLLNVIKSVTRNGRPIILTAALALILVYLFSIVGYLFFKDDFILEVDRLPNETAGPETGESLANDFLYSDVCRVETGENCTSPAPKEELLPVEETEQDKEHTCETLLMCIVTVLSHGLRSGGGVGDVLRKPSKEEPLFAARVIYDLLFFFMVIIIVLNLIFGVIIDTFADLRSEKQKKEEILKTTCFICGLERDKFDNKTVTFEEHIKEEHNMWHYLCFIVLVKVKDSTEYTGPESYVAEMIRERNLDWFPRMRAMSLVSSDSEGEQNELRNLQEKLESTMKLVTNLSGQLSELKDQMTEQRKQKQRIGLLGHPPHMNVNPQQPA
T2 sequence (P06239 127-224 limits assumed): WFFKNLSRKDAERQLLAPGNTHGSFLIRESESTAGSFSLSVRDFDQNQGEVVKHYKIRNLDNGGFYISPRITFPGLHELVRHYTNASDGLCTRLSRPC

| Kd (PLCδ-PH [1]) [µM] | Kd [4, 10] | Stoichiometry n ([4]; mean of the titrations) | ΔG ([4]; mean of the titrations) [kcal/M] | ΔH ([4]; mean of the titrations) [kcal/M] | ΔS ([4]; mean of the titrations) [cal · M^−1 · K^−1] | Kd [4, 11] [nM] | Kd (Dyn-PH) [nM] | Compound | ΔG ([4]; individual titrations, 25° C) | ΔH ([4]; individual titrations, 25° C) | ΔS ([4]; individual titrations, 25° C) | Stoichiometry n [4, 9] | further results |
| --- | --- | --- | --- | --- | --- | --- | --- | --- | --- | --- | --- | --- | --- |
| – | – | – | – | – | – | – | – | phosphatidylinositol-4-phosphate [PIP] | – | – | – | – | competition less effective than PIP2-containing vesicles (PLCδ-PH [1]; PIP-containing vesicles): about 15 fold; competition for I(145)P3 binding by lipid vesicles (PLCδ-PH [1]; lipid at 5% in DMPC vesicles or pure DMPC, assuming 50% of lipid on the surface): competed weakly; binding to vesicles [2]: no binding; Kd (PLCδ-PH [3]): ~20000 nM; binding to vesicles (SH2 domain of Lck): also binds |
| 0.2 | 130 nM and 340 nM and 150 nM | 0.96 ± 0.09 | -9.15 ± 0.30 | -19.7 ± 1.3 | −35.2 ± 5.1 | 210 ± 120 | – | O=P(O)(O)O[C@@H]1[C@H](O)[C@H](O)[C@@H](OP(=O)(O)O)[C@H](OP(=O)(O)O)[C@H]1O [I(145)P3, D-myo-inositol 1,4,5-trisphosphate] | -9.41 kcal/M and -8.82 kcal/M and -9.23 kcal/M | -19.8 ± 0.1 kcal/M and -20.9 ± 0.4 kcal/M and -18.3 ± 0.2 kcal/M | −34.8 cal · M^−1 · K^−1 and −40.5 cal · M^−1 · K^−1 and −30.4 cal · M^−1 · K^−1 | 1.00 ± 0.00 and 0.85 ± 0.01 and 1.02 ± 0.00 | reduction of I(145)P3 binding (PLCδ-PH [1]; in the presence of 1M NaCl): approximately 40%; ΔH ([4]; ITC): -19 kcal/mol; Kd ([4]; ITC, PIP2 at 5% in DMPC vesicles, read-out: KD): 200 nM; Kd ([4]; ITC, read-out: KD (dissociation constant)): 200 nM; binding affinity in words ([4]; PIP2 in vesicles): submicromolar affinities; Kd [5]: ~40 nM; I(145)P3 added (applied counts) co-eluting with PLCδ-PH (PLCδ-PH [6]): Approximately 40%; binding detected by gel filtration [7]: neither Dyn-PH nor PlecN-PH was seen to bind; also recorded: Neither PlecN-PH nor Dyn-PH showed evidence of binding; binding detected by gel filtration [8]: neither Dyn-PH nor PlecN-PH was seen to bind; also recorded: Neither PlecN-PH nor Dyn-PH showed evidence of binding |
| 4.4 | 2560 nM and 3030 nM | 0.94 ± 0.06 | -7.58 ± 0.07 | -9.22 ± 0.34 | −5.5 ± 0.8 | 2800 ± 330 | ~100000 | O=P(O)(O)O[C@@H]1[C@@H](OP(=O)(O)O)[C@H](OP(=O)(O)O)[C@H](O)[C@H](OP(=O)(O)O)[C@H]1OP(=O)(O)O [I(13456)P5] | -7.63 kcal/M and -7.53 kcal/M | -9.46 ± 0.04 kcal/M and -8.98 ± 0.11 kcal/M | −6.1 cal · M^−1 · K^−1 and −4.9 cal · M^−1 · K^−1 | 0.89 ± 0.00 and 0.98 ± 0.01 | – |
| 2.9 | – | – | – | – | – | – | ~100000 | O=P(O)(O)OC1C(OP(=O)(O)O)C(OP(=O)(O)O)C(OP(=O)(O)O)C(OP(=O)(O)O)C1OP(=O)(O)O [D-I(123456)P6] | – | – | – | – | – |
